Experimental findings from US20240180890A1, “VACCINE ADJUVANT” (Celleron Therapeutics Limited, priority 2021, published 2024) are described below.

In one series the test system is HDAC Class II. Put plainly: HDAC Class II inhibition. The class given is biochemical. The following applies: no activity against HDAC Class II.
Series [1] deals with peptide-specific CD8 T cells. In words: Immunogenicity experiment with CXD101 and peptide vaccine. The class given is in vivo, C57BL/6 mice. The procedure: C57BL/6 mice were treated with orally administrated CXD101 at 10 mg/kg for 14 days (5 days on/2 days off) and intravenous D8V and 18V peptides vaccination (days 1 and 7) with respect to vehicle only control; n=5 per group; • B) 18V-peptide specific CD8 positive T cells with tetramers (i) and general T cell activation (CD8+ CD44+ CD62L− tetramer positive T cells) measurements by flow cytometry; n=5; • C) Representative examples of immunohistochemical staining of H3AcK9 in lungs (i) collected from C57BL/6 mice at 14 days treated with 25 mg/kg CXD101 and non-treated control. Original magnification: 20×, scale bar, 50 μm; and 63×; scale bar, 16 μm. n=3; (ii) results were quantified by ImageJ Fiji software and normalised optical density was presented as a mean+/−SD. […]
Twenty C57BL/6 female mice (5 mice per group: control; CXD101 treated; peptide vaccinated; CXD101/peptide vaccinated) where 10 mice were vaccinated intravenously with 30 μg of peptides encoding CD8 T cell epitopes from the beta-galactosidase gene, βgale96-103 (DAPIYTNV; D8V), the βgal497-504 (ICPMYARV; 18V) (Genscript) with 30 μg polylC (InVivogen) and 25 μg anti-CD40 (2bScientific). […] Mice were bled at day 6 and 13 post prime and the levels of peptide-specific CD8 T cells measured by detection with tetramers followed by flow cytometry.

The nature of the next series: physchem. The following applies: 25 °C, aqueous buffer.

SMILES strings stand for the structures.

Consider `Cc1nn(C)cc1CN1CCC(c2ccc(C(=O)Nc3ccccc3N)cc2)CC1` [CXD101/zabinostat, N-(2-aminophenyl)-4-(1-[(1,3-dimethyl-1H-pyrazol-4-yl)methyl]piperidin-4yl)benzamide], for which the IC50 with HDAC Class II was ≥ 2500 nM. Besides, in series [1] (C57BL/6 mice, oral CXD101, intravenous D8V and 18V peptides vaccination, tetramers and flow cytometry (FIG. 7)), the “immunogenicity against a peptide-based vaccine” value is “induces immunogenicity against a peptide-based vaccine”. For the same compound, the “immune response to an immunogenic protein” value in series [1] (normal healthy cells and animals) is recorded as “potentiates the immune response”. In addition, the solubility in “physchem” is ≥ 500 µg/mL.

A word on the IC50: it is the concentration that inhibits the measured activity by half. By solubility is commonly meant the dissolved amount per volume that the medium holds.
